Data reported in patent US11918550B2, “Sensitization of cancer cells to differentiation therapy with mitochondrial uncoupler niclosamide ethanolamine” (The Board of Trustees of the Leland Stanford Junior …, priority 2020, dated 2024).

Columns and labels:
SK-N-BE(2) cells [1] = test: RNA-seq gene expression profiling with GSEA/DAVID analysis and qPCR validation; format: cell-based
Description: RNA isolation, reverse transcription, and real-time PCR. The procedure was performed as described before. Briefly, total RNA was isolated from 60 mm tissue culture plates according to the TRIzol Reagent (Invitrogen, 15596026) protocol. 3 μg of total RNA was used in the reverse transcription reaction using the iScript cDNA synthesis kit (Bio-Rad). Quantitative PCR amplification was performed on the Prism 7900 Sequence Detection System (Applied Biosystems) using Taqman Gene Expression Assays (Applied Biosystems). Gene expression level were normalized to 18S rRNA.
RNA Sequencing and bioinformatics analysis. […] The RNA-seq library was constructed and subjected to 150 bp paired-end sequencing on an Illumina sequencing platform (Novogene). RNA-seq analysis was performed using the kallisto and sleuth analytical pipeline. In brief, a transcript index was generated with reference to Ensembl version 67 for hg19. Paired-end mRNA-seq reads were pseudo-aligned using kallisto (v0.42.4) with respect to this transcript index using 100 bootstraps (-b 100) to estimate the variance of estimated transcript abundances. Transcript-level estimates were aggregated to transcripts per million (TPM) estimates for each gene, with gene names assigned from Ensembl using biomaRt. Differential gene expression analysis was performed using the sleuth R package across pairwise groups using Wald tests, with significant hits called with a sleuth q-value<0.05 and log 2(fold change) >0.693 or <−0.693. […] All the annotated transcripts (˜21,427 features in total) with expression values were uploaded to a locally-installed GSEA tool (version 4.1.0) and compared against the H: hallmark gene sets (50 gene sets).
To generate the favorable or unfavorable prognosis gene sets, Kaplan-Meier assay were employed for all the genes independently by using all 11 available neuroblastoma patient databases from R2.
For functional annotation, differentially expressed genes were submitted to online Database for Annotation, Visualization and Integrated Discovery (DAVID) website. The Analyses in DAVID were performed using the default parameters.

SK-N-BE(2) cells [2] = test: Proliferation after hypoxia pretreatment and replating; format: cell-based; details: 1 μM NEN under hypoxia 4 days, replated under normoxia, counted after 5 days
Description: Cell proliferation and clonogenic assay. 2×10^4 cells were seeded in 12 well-plate and allowed to attached overnight. Then the cells were treated with various conditions as indicated for 48 h or 96 h (n=3). After treatment, cells were counted using hemocytometer.

[3] = system: orthotopic neuroblastoma xenograft (SK-N-BE(2) cells); test: Metabolite levels in orthotopic xenograft tumors by LC/MS; format: in vivo, mice; details: diet 2000 ppm NEN vs control
Description: (§1) Metabolic analysis. For the metabolomics and isotope tracing analysis in vitro, cells were washed with cold PBS, lysed in 80% Ultra LC-MS acetonitrile on ice for 15 minutes, centrifuged at 20,000 g for 10 minutes at 4° C., and supernatant was subjected to mass spectrometry analysis. For the metabolomics analysis in vivo, 10-20 mg tissue were cut off on ice, rinsed if necessary to remove blood, and place in a 2 ml round-bottom cryovial. The tissues were homogenized by 3 times 10 s on/off bursts homogenization in 1 ml 80% methanol on dry ice. Transfer the homogenate to an Eppendorf tube and keep on liquid nitrogen while processing the remaining samples. Incubated all the samples in −80° C. for 30 minutes. After incubation, vortexed the samples for 5 seconds. Then centrifuged the samples at 20,000 g for 10 minutes at 4° C., and supernatant was subjected to mass spectrometry analysis. Resuspend the remaining cellular pellet in 100 ul protein lysis buffer and determine the protein concentration. Then calculate the total protein content per sample.
Liquid chromatography was performed using an Agilent 1290 Infinity LC system (Agilent, Santa Clara, US) coupled to a Q-TOF 6545 mass spectrometer (Agilent, Santa Clara, US). A hydrophilic interaction chromatography method (HILIC) with a BEH amide column (100×2.1 mm i.d., 1.7 μm; Waters) was used for compound separation at 35° C. with a flow rate of 0.3 ml/minutes. The mobile phase A consisted of 25 mM ammonium acetate and 25 mM ammonium hydroxide in water and mobile phase B was acetonitrile. The gradient elution was 0-1 minute, 85% B; 1-12 minutes, 85% B→65% B; 12-12.2 minutes, 65% B→40% B; 12.2-15 minutes, 40% B. After the gradient, the column was re-equilibrated at 85% B for 5 minutes. The overall runtime was 20 minutes, and the injection volume was 5 μL. […]
(§2) Mouse orthotopic neuroblastoma model. […] Tumor formation was monitored by non-invasive ultrasound measurements, and the animals euthanized when the tumor volume exceeded 1,000 mm^3.

[4] = Plasma and tissue NEN levels under dietary NEN supplementation (LC/MS); format: in vivo; details: mice, diet that contains 2000 ppm NEN
Description: as §1
Liquid chromatography was performed using an Agilent 1290 Infinity LC system (Agilent, Santa Clara, US) coupled to a Q-TOF 6545 mass spectrometer (Agilent, Santa Clara, US). […]
as §2

[5] = GSEA against gene sets from 11 neuroblastoma datasets of the R2 database
[6] = SK-N-BE(2), NEN 16 h, DAVID analysis
[7] = SK-N-BE(2), NEN 16 h, sleuth q-value<0.05, b>abs(ln(2))
[8] = SK-N-BE(2), RNA-seq, validated by RT-qPCR

O=C(Nc1ccc([N+](=O)[O-])cc1Cl)c1cc(Cl)ccc1O [NEN, 5-chloro-N-(2-chloro-4-nitrophenyl)-2-hydroxybenzamide compound with 2-aminoethanol (1:1)]
enrichment of NEN-downregulated genes in patient prognosis gene sets (SK-N-BE(2) cells [1]; [5]): enriched in unfavorable prognosis gene sets
enrichment of NEN-upregulated genes in patient prognosis gene sets (SK-N-BE(2) cells [1]; [5]): enriched in all the favorable prognosis gene sets except one
genes expression in RAR signaling induced by RA (SK-N-BE(2) cells [1]; SK-N-BE(2), 1 μM NEN + 1 μM 13-cis-RA 16 hrs, validated by qRT-PCR): significantly enhanced
p53 pathway gene expression (GSEA) (SK-N-BE(2) cells [1]; SK-N-BE(2), NEN 16 h): significantly increased
pathways enriched in NEN-downregulated genes (SK-N-BE(2) cells [1]; [6]): DNA replication and cell cycle progression
pathways enriched in upregulated genes (SK-N-BE(2) cells [1]; [6]): neurogenesis, nervous system development and neuron differentiation
number of genes downregulated (SK-N-BE(2) cells [1]; [7]): 224
number of genes significantly upregulated (SK-N-BE(2) cells [1]; [7]): 495
cell division-related genes (GSEA hallmarks E2F-TARGETS, G2M_CHECKPOINT) (SK-N-BE(2) cells [1]; SK-N-BE(2), NEN 16 h vs CTRL): downregulation
expression of N-Myc targeted genes (GSEA MYC_TARGETS_V1, V2) (SK-N-BE(2) cells [1]; SK-N-BE(2), NEN 16 h vs CTRL): reduced
expression of canonical Wnt/β-catenin target genes (SK-N-BE(2) cells [1]; [8]): reduced
gene expression of inhibitor of Wnt/β-catenin pathway including TP53 (SK-N-BE(2) cells [1]; [8]): upregulated
gain of proliferation advantage from hypoxia pretreatment (SK-N-BE(2) cells [2]): blocked
2-HG level in the tumor [3]: reduced
NAD+/NADH in the tumor [3]: increased
lactate level in the tumor [3]: slightly reduced
NEN accumulation in plasma [4]: 1 to 3 µM
